Data: patent EP0882010B1, “PHARMACEUTICAL AGENTS CONTAINING PERFLUOROALKYL-CONTAINING METAL COMPLEXES AND THE USE THEREOF IN TUMOUR THERAPY AND INTERVENTIONAL RADIOLOGY” (SCHERING AKTIENGESELLSCHAFT, priority 1996, dated 1997)
Entries after “also recorded” stand apart in the source; their conditions may differ. Where two headings read alike, the source gives them in different places.

Experiments:
[1] = T1 relaxivity at 20 MHz, 37°C; assay type: physicochemical
Method: c) Gadolinium-Komplex von 10-[2-Hydroxy-4-aza-5-oxo-7-aza-7-(perfluoroctylsulfonyl)-nonyl]-1,4,7-tris(carboxymethyl)-1,4,7,10-tetraazacyclododecan 10 g (17,09 mmol) der Titelverbindung aus Beispiel 1b) und […] (18,79 mmol) N-Hydroxysuccinimid werden in einer Mischung aus 50 ml Dimethylformamid/50 ml Chloroform gelöst. Bei 0°C gibt man 3,88 g (18,79 mmol) Dicyclohexylcarbodiimid zu und rührt 1 Stunde bei 0°C, anschließend 3 Stunden bei Raumtemperatur. Man kühlt erneut auf 0°C und gibt 5,19 g (51,27 mmol) Triethylamin/50 ml 2-Propanol zu. Anschließend werden 10,78 g (18,79 mmol) Gadolinium-Komplex von 10-(3-Amino-2-hydroxy-propyl)-1,4,7-tris(carboxymethyl)-1,4,7,10-tetraazacyclododecan (WO 95/17451) gelöst in 50 ml Wasser zugegeben und 3 Stunden bei Raumtemperatur gerührt. Man dampft zur Trockne ein, nimmt den Rückstand in einer Mischung aus 200 ml Methanol/100 ml Chloroform auf und filtriert vom Dicyclohexylharnstoff ab. Das Filtrat wird zur Trockne eingedampft und durch RP-Chromatographie gereinigt (RP-18/Laufmittel: Gradient aus Wasser/n-Propanol/ Acetonitril). Ausbeute: 16,37 g (78 % d. Th.) eines farblosen glasigen Feststoffes Wassergehalt: 7,1 % T1-Relaxivität (L/mmol·sec) bei 20 MHz, 37°C: 41 (Wasser) 49 (Humanplasma)
e) Mangan-Komplex von 10-[2-Hydroxy-4-aza-5-oxo-7-aza-7-(perfluoroctylsulfonyl)-nonyl]-1,4,7-tris(carboxymethyl)-1,4,7,10-tetraazacyclododecan (als Natriumsalz) 5 g (5,07 mmol) der Titelverbindung aus Beispiel ld) werden in 100 ml Wasser gelöst und 0,58 g (5,07 mmol) Mangan(II) -carbonat zugegeben. Man rührt3 Stunden bei 80°C. Die Lösung wird filtriert und das Filtrat mit 1 N Natronlauge auf pH 7,2 gestellt, anschließend wird gefriergetrocknet. Ausbeute: 5,87 g (quantitativ) eines farblosen amorphen Pulvers Wassergehalt: 8,4 % T1-Relaxivität (L/mmol·sec) bei 20 MHz, 37°C: 2,7 (Wasser) 4,2 (Humanplasma)
c) Gadolinium-Komplex von 10-[2-Hydroxy-4-aza-5-oxo-7-oxa-10,10,11,11,12,12,13,13,14,14,15,15,16,16,17,17,17-heptadecafluor-heptadecyl]-1,4,7-tris(carboxymethyl)-1,4,7,10-tetraazacyclododecan 7,0 g (13,41 mmol) der Titelverbindung aus Beispiel 2b) und 1,70 g (14,75 mmol) N-Hydroxysuccinimid werden in einer Mischung aus 30 ml Dimethylformamid/ 20 ml Chloroform gelöst. Bei 0°C gibt man 3,04 g (14,75 mmol) Dicyclohexylcarbodiimid zu und rührt 1 Stunde bei 0°C, anschließend 3 Stunden bei Raumtemperatur. Man kühlt erneut auf 0°C und gibt 4,48 g (44,25 mmol) Triethylamin/50 ml 2-Propanol zu. Anschließend werden 8,46 g (14,75 mmol) Gadolinium-Komplex von 10-(3-Amino-2-hydroxy-propyl)-1,4,7-tris(carboxymethyl)-1,4,7,10-tetraazacyclododecan gelöst in 40 ml Wasser zugegeben und 3 Stunden bei Raumtemperatur gerührt. Man dampft zur Trockne ein, nimmt den Rückstand in einer Mischung aus 100 ml Methanol/30 ml Chloroform auf und filtriert vom Dicyclohexylharnstoff ab. Das Filtrat wird zur Trockne eingedampft und durch RP-Chromatographie gereinigt (RP-18/Laufmittel: Gradient aus Wasser/n-Propanol/Acetonitril). Ausbeute: 11,8 g (75 % d. Th.) eines farblosen glasigen Feststoffes Wassergehalt: 8,2 % T1-Relaxivität (L/mmol·sec) bei 20 MHz, 37°C: 19 (Wasser) 33 (Humanplasma)
c) Gadolinium-Komplex von 10-[-2Hydroxy-4-oxa-1H,1H,2H,3H,3H,5H,5H,6H,6H-perfluor-tetradecyl]-1,4,7-tris(carboxymethyl)-1,4,7,10-tetraazacyclododecan 10 g (11,54 mmol) der Titelverbindung aus Beispiel 3b) werden in einer Mischung aus 100 ml Wasser/50 ml 2-Propanol gelöst und 2,09 g (5,77 mmol) Gadoliniumoxid zugegeben. Man rührt 3 Stunden bei 80°C. Die Lösung wird filtriert und im Vakuum zur Trockne eingedampft. Ausbeute: 12,48 g (quantitativ) eines glasigen Feststoffes Wassergehalt: 5,6 % T1-Relaxivität (L/mmol·sec) bei 20 MHz, 37°C: 15,2 (Wasser) 27,5 (Humanplasma)

[2] = test system: Nierengefäße der Ratte; experiment: Embolisation of the renal vessels in the rat, followed by X-ray; assay type: in vivo
Method: Als gut darstellbare Gefäße wurden die Nierengefäße der Ratte embolisiert.
Dem Tier wurde ein Katheter (20 cm lang, 0,58 mm Øi in die A. mesentrerica eingebunden und in die A. renalis der linken Niere vorgeschoben. Die Lösung der Verbindung aus Beispiel 1 c) (hier 50 mmol/1 mit 150 mg J/ml Isovist ®) wurde mit 160 µl/min appliziert. Gesamtvolumen 250 µl. Anschließend wurde der Katheter in die A. mesenterica zurückgezogen, um die Blutversorgung der Nieren im weiteren Verlauf nicht zu beinträchtigen. […] Zur Kontrolle der Nierendurchblutung wurde 1 Stunde nach der lokalen Applikation der Verbindung aus Beispiel lc) 400 µl des nierengängigen Röntgenkontrastmittels Ultravist ® 300 mg J/ml i.v. in die Schwanzvene gegeben.
Direkt nach intraarterieller, lokaler Gabe von 250 µl einer Lösung der Verbindung aus Beispiel 1 c) (50 mmol/L + 150 mg J/ml Isovist ® )in die katherisierte Nierenarterie (linke Niere, im Bild rechts)
5' p.a. Ultravist ®, 400 µl i.v. 1 Stunde nach lokaler Gabe der Verbindung aus Beispiel 1c) wurde Ultravist ® über die Schwanzvene gegeben.

[3] = test system: Lebergefäße am Kaninchen; experiment: Embolisation of the liver vessels in the rabbit, followed by X-ray; assay type: in vivo
Method: Als gut darstellbare Gefäße wurden die Lebergefäße am Kaninchen embolisiert.
Dem narkotisierten Tier wurde ein Katheter (60 cm lang, 1,5 mm Øa) über die A. femoralis bis in die Leberarterie durch die Aorta vorgeschoben. Die Lösung von Gadoliniumkomplex aus Beispiel 1c) (50 mmol/L mit 150 mg J/ml Isovist ®) wurde mit 160 µL/min appliziert. Gesamtvolumen 800 µL. Anschließend wurde der Katheter in die Aorta zurückgezogen, um die arterielle Blutversorgung der Leber im weiteren Verlauf nicht zu beeinträchtigen. […] Zum Teil ist die Abnahme der Signalintensität auf ein Herausdiffündieren des Röntgenkontrastmittels Isovist ® zurückzuführen.

[4] = test system: VX-2 Tumorzellen; experiment: Therapy of a liver carcinoma in the rabbit (chemoembolisation, MRI control); assay type: in vivo, Chinchilla-Kaninchen; settings: rabbit VX-2 liver tumour, 75 mmol/l solution with 50 mg Cisplatin, 8 ml via catheter, MRI after 7 days; control animals 3,7 ± 1,5
Method: Fünf männlichen Chinchilla-Kaninchen wurde durch Injektion von VX-2 Tumorzellen in den linken Leberlappen ein Tumor gesetzt. Dem narkotisiertem Tier wurde ein Katheter (60 cm lang, 1 mm Øa) über die Arteria femoralis bis in die Nähe des Tumors vorgeschoben. Dann wurde eine Lösung der Titelverbindung aus Beispiel 1 c [75 mmol/l mit 50 mg Cisplatin (=[…]) appliziert. Gesamtvolumen 8 ml.
Anschließend wurde der Katheter entfernt. Nach 7 Tagen wurden die Tiere mittels MRI untersucht. Es zeigte sich, daß der Tumor sich in seiner Größe verringert hat (durchschnittlicher Wachstumsfaktor 0,8 ± 0,2). Bei den Kontrolltieren (3 Tiere) wurden jedoch Wachstumsraten von 3,7 ± 1,5 beobachtet.

[5] = gut löslich at this concentration, free-flowing solution

Structure (SMILES): CCN(CC(=O)NCC(O)CN1CCN(CC(=O)[O-])CCN(CC(=O)[O-])CCN(CC(=O)[O-])CC1)S(=O)(=O)C(F)(F)C(F)(F)C(F)(F)C(F)(F)C(F)(F)C(F)(F)C(F)(F)C(F)(F)F.[Gd+3] (centres unmarked) [Beispiel 1c), Gadolinium-Komplex von 10-[2-Hydroxy-4-aza-5-oxo-7-aza-7-(perfluoroctylsulfonyl)-nonyl]-1,4,7-tris(carboxymethyl)-1,4,7,10-tetraazacyclododecan]
- T1-Relaxivität ([1]; Humanplasma): 49 L/mmol/s
- T1-Relaxivität ([1]; Wasser): 41 L/mmol/s
- Abgrenzung der Gefäße der linken Niere in Röntgenaufnahmen ([2]; 250 µl of 50 mmol/1 solution with 150 mg J/ml Isovist into A. renalis at 160 µl/min): scharf gegenüber dem Nierenparenchym abgegrenzt
- Enhancement der embolisierten linken Niere und ihres Harnleiters ([2]; 400 µl Ultravist 300 mg J/ml i.v. 1 hour after local application, non-embolised right kidney enhanced): kein Enhancement; also recorded: bleibt dunkel
- Signalintensität der Gefäße in der Niere ([2]; up to 45 minutes after administration, attributed to Isovist diffusing out): deutlich ab
- Abgrenzung der Gefäße der Leber in Röntgenaufnahmen ([3]; 800 µL of 50 mmol/L solution with 150 mg J/ml Isovist into liver artery at 160 µL/min): scharf gegenüber dem Leberparenchym abgegrenzt
- Signalintensität der Gefäße in der Leber ([3]; within 60 minutes after administration): nur langsam ab
- durchschnittlicher Wachstumsfaktor des Tumors [4]: 0,8 ± 0,2
- Applizierbarkeit der Lösung (100 mmol/1 in water with 100 mg J/ml Isovist, 20 cm, 0,58 mm Øi tube at 160 µl/min): problemlos
- Konsistenz der Lösung (100 mmol/1 solution in water with 100 mg J/ml Isovist): klar durchsichtig und besitzt eine gelartig feste Konsistenz
- Applizierbarkeit der Lösung (100 mmol/L in water, by hand or infusion pump through a 20 cm, 0.58 mm Øi tube at 160 µL/min): problemlos
- Konsistenz der Lösung (100 mmol/L solution in water): klar durchsichtig und besitzt eine gelartig feste Konsistenz
- Konsistenz mit Zusatz von Harnstoff (8 mol/L Harnstoff (final), also at substance concentration 400 mmol/L): frei fließende Lösung
- Löslichkeit in 96% Ethanol (96% Ethanol, free-flowing solution): > 500 mmol/L
- Löslichkeit in Rinderplasma (Rinderplasma, solution of comparable consistency): ebenso löslich wie in reinem Wasser
- Einfluß auf die Konsistenz der Zubereitung (addition of 10 mmol/L HCl or NaOH, or 3 mol/L NaCl): keinen Einfluß auf die Konsistenz
- Veränderung der Konsistenz durch Triton X-100 (aqueous formulation, Triton X-100, 1.7%): Verflüssigung der gelartigen Konsistenz
- Veränderung der Konsistenz durch Tween 80 (aqueous formulation, Tween 80, 4.6% final concentration): keine Veränderung der Konsistenz
- Löslichkeit in 66% DMSO/Wasser [5]: ≥ 150 mmol/L
- Löslichkeit in 66% Propylenglycol/Wasser [5]: ≥ 250 mmol/L
- concentration below which a frei fließende Lösung results (in water, printed as 'Unterhalb von etwa'): 10000 to 20000 µM
- Löslichkeit in reinem DMSO (pure DMSO): praktisch unlöslich
- Löslichkeit in reinem Propylenglycol (pure Propylenglycol): praktisch unlöslich
